In ChEMBL document CHEMBL1201862, “PubChem BioAssay data set” (2004):
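Exposure lasted 48 hours, with cells grown in 96-well plates and compounds tested at five concentrations. GI50: concentration for 50% inhibition of growth.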 Activity calls are given as the source filed them. Rule as the data show it: active = GI50 up to about 1.1 µM and inactive = higher.

How the values were obtained:
Experiment in all cases: NCI-60 cell line screen, 48 h
[1] = test system: 786-0
[2] = test system: CAKI-1
[3] = test system: HCC 2998
[4] = test system: HOP-62
[5] = test system: KM12
[6] = test system: M14
[7] = test system: MOLT-4
[8] = test system: OVCAR-3
[9] = test system: OVCAR-4
[10] = test system: SF-295
[11] = test system: SK-MEL-28
[12] = test system: SK-OV-3
[13] = test system: SNB-75
[14] = test system: SW-620
[15] = test system: TK-10
[16] = test system: U-251
[17] = test system: UACC-257
[18] = test system: HOP-92

Measured: GI50

Cc1cc(C)c2c(c1)CSCc1cc(C)cc(C)c1-2
inactive: [1] 32.5 µM | [2] 26.2 µM | [3] 35.2 µM | [4] 27.6 µM | [5] 42.6 µM | [6] 22.6 µM | [7] 21.1 µM | [8] 30.3 µM | [9] 39.2 µM | [10] 25.6 µM | [11] 1.72 µM | [12] 88.9 µM | [13] 37.3 µM | [14] 71.8 µM | [15] > 100 µM | [16] 19.8 µM | [17] 24.8 µM

Cc1cc2c(cc1C)[n+]([O-])c(C(=O)/C=C/c1ccccc1Cl)c(C)[n+]2[O-]
inactive: [1] 16 µM | [2] 21.1 µM | [3] 17.1 µM | [4] 24.6 µM | [5] 31.8 µM | [6] 24.1 µM | [7] 39.5 µM | [8] 28.7 µM | [9] 50.7 µM | [10] 32.1 µM | [11] 26.9 µM | [12] 36 µM | [13] 19.2 µM | [14] 35.1 µM | [15] 25.4 µM | [16] 28.2 µM | [17] 23 µM

Nc1c(Cl)ncnc1NCCCNc1ncnc(Cl)c1N
inactive: [1] > 100 µM | [2] > 100 µM | [3] > 100 µM | [4] > 100 µM | [18] > 100 µM | [5] > 100 µM | [6] > 100 µM | [7] > 100 µM | [8] > 100 µM | [9] > 100 µM | [10] > 100 µM | [11] > 100 µM | [12] > 100 µM | [14] > 100 µM | [15] > 100 µM | [16] > 100 µM | [17] 67 µM

O=C(N/C(=C\c1ccc([N+](=O)[O-])cc1)c1nc2ccccc2[nH]1)c1ccccc1
inactive: [1] > 100 µM | [3] > 100 µM | [4] > 100 µM | [18] 45.6 µM | [5] > 100 µM | [6] > 100 µM | [7] > 100 µM | [9] > 100 µM | [10] > 100 µM | [11] > 100 µM | [14] > 100 µM | [15] > 100 µM | [16] 63.7 µM | [17] > 100 µM

COc1cc(C2C(Cl)C(=O)N2n2cnc3ccccc3c2=O)cc(OC)c1OC (configuration not stated)
inactive: [1] > 100 µM | [2] 67.1 µM | [3] > 100 µM | [4] > 100 µM | [5] 41.9 µM | [6] 84.5 µM | [7] 59.2 µM | [8] > 100 µM | [9] 82.2 µM | [10] > 100 µM | [11] > 100 µM | [12] > 100 µM | [13] 65.5 µM | [14] 60.3 µM | [15] > 100 µM | [16] > 100 µM | [17] 55.8 µM

O=C1CC2CCCCC2=C1O (configuration not stated)
inactive: [1] > 100 µM | [2] > 100 µM | [3] > 100 µM | [4] > 100 µM | [5] > 100 µM | [7] > 100 µM | [8] > 100 µM | [9] > 100 µM | [10] > 100 µM | [11] > 100 µM | [12] > 100 µM | [13] > 100 µM | [14] > 100 µM | [15] > 100 µM | [16] > 100 µM | [17] > 100 µM

OC12c3ccccc3C1CCCCCCCCCC21OCCCO1 (configuration not stated)
inactive: [3] > 100 µM | [4] > 100 µM | [5] > 100 µM | [6] > 100 µM | [8] > 100 µM | [9] > 100 µM | [10] > 100 µM | [11] > 100 µM | [12] > 100 µM | [13] > 100 µM | [14] > 100 µM | [15] > 100 µM | [17] > 100 µM

CC(=O)Nc1ccc(-c2nnc(SCC(=O)Nc3cccc([N+](=O)[O-])c3)o2)cc1
inactive: [1] 17.6 µM | [2] 13.7 µM | [4] 22.9 µM | [18] 17.1 µM | [5] 17.3 µM | [6] 16.1 µM | [7] 4.39 µM | [8] 13.5 µM | [9] 11.6 µM | [10] 16.8 µM | [11] 16.5 µM | [12] 11.1 µM | [13] 17.8 µM | [14] 13.4 µM | [15] 23.6 µM | [16] 14.6 µM | [17] 17.3 µM

CCCCCCCC(=O)OC[C@H](C[As](=O)(O)O)OC(=O)CCCCCCC
inactive: [1] 13.4 µM | [3] 14.6 µM | [4] 18.7 µM | [18] 14.4 µM | [6] 12.3 µM | [7] 2.15 µM | [9] 12.2 µM | [10] 14.4 µM | [11] 13.3 µM | [12] 15 µM | [13] 11.1 µM | [14] 7.26 µM | [16] 4.95 µM | [17] 12.8 µM

N=C(N)SCCc1cn2ccccc2n1
inactive: [1] > 100 µM | [2] > 100 µM | [3] > 100 µM | [4] > 100 µM | [5] > 100 µM | [6] > 100 µM | [7] > 100 µM | [8] > 100 µM | [9] > 100 µM | [10] > 100 µM | [11] > 100 µM | [13] > 100 µM | [14] > 100 µM | [15] > 100 µM | [16] > 100 µM | [17] > 100 µM

COc1cc2c(cc1OC)C(N(C)C)C(c1ccccc1)=C2Cl (configuration not stated)
inactive: [1] 25.3 µM | [4] 36.4 µM | [18] 17.9 µM | [5] 23.2 µM | [6] 19.8 µM | [7] 12.5 µM | [8] 21.3 µM | [9] 27.4 µM | [10] 22.8 µM | [11] 18.7 µM | [12] 22 µM | [13] 20 µM | [14] 16.2 µM | [15] 37.5 µM | [16] 16.6 µM | [17] 18 µM

O=[N+]([O-])c1ccccc1S(=O)(=O)c1ccccc1
inactive: [3] > 100 µM | [4] > 100 µM | [18] 80.7 µM | [5] > 100 µM | [6] > 100 µM | [7] > 100 µM | [8] > 100 µM | [9] 52.6 µM | [10] > 100 µM | [11] > 100 µM | [12] > 100 µM | [13] 23 µM | [14] > 100 µM | [15] > 100 µM | [16] > 100 µM | [17] > 100 µM

COc1cc(CNc2ccc(C(C)C)cc2)cc(OC)c1OC
inactive: [1] 15.4 µM | [4] 23.9 µM | [18] 20.3 µM | [5] 18.5 µM | [7] 22.4 µM | [9] 25.3 µM | [11] 27 µM | [12] 17.6 µM | [13] 23.7 µM | [15] 47.4 µM | [16] 15.4 µM | [17] 25.8 µM
